For experiment [1], the target named is Nicotinic acetylcholine receptor alpha9/alpha10 (Rattus norvegicus, UniProt P43144+Q9JLB5). Put plainly: Antagonist activity at rat alpha9alpha10 nACh receptor expressed in Xenopus oocyte assessed as inhibition of acetylcholine-induced response at -70 mV holding potential by voltage-clamp based electrophysiological assay. The format is cell-based.
The target in experiment [2] is Neuronal acetylcholine receptor subunit alpha-7 (Rattus norvegicus, UniProt Q05941). Put plainly: Antagonist activity at rat alpha7 nACh receptor expressed in Xenopus oocyte assessed as inhibition of acetylcholine-induced response at -70 mV holding potential by voltage-clamp based electrophysiological assay. Format: cell-based.
Neuronal acetylcholine receptor subunit alpha-7, sequence (Q05941 whole entry): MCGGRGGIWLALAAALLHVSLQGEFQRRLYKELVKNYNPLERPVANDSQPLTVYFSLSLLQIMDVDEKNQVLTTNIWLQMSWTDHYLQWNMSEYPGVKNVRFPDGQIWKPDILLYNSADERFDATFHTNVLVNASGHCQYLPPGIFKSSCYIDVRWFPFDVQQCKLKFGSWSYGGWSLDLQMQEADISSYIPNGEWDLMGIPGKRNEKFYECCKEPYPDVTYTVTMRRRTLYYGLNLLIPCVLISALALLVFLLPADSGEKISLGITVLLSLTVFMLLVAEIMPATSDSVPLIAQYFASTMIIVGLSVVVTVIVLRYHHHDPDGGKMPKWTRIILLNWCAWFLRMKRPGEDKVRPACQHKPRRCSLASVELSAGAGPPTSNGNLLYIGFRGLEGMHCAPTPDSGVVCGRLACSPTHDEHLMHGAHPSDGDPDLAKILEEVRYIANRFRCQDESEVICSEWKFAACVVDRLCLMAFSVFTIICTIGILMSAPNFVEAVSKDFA

The results in this text go back to ChEMBL document CHEMBL5346973 (J Med Chem, 2023).

Where a SMILES comes first, the peptide text is derived from it.

Nicotinic acetylcholine receptor alpha9/alpha10, sequence (P43144 whole entry): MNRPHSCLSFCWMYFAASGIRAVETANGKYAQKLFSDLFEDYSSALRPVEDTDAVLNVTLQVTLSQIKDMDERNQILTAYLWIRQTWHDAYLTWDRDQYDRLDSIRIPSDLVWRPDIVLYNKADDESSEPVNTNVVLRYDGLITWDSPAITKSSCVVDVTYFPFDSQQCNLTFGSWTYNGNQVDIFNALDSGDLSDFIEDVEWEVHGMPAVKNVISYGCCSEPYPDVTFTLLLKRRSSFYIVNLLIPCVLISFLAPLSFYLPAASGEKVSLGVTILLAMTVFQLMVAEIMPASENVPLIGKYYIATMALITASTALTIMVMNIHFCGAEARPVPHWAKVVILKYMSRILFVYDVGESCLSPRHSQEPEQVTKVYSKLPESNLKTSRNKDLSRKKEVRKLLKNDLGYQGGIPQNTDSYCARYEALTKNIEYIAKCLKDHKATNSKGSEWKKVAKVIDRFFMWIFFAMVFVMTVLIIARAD
Nicotinic acetylcholine receptor alpha9/alpha10, sequence (Q9JLB5 whole entry): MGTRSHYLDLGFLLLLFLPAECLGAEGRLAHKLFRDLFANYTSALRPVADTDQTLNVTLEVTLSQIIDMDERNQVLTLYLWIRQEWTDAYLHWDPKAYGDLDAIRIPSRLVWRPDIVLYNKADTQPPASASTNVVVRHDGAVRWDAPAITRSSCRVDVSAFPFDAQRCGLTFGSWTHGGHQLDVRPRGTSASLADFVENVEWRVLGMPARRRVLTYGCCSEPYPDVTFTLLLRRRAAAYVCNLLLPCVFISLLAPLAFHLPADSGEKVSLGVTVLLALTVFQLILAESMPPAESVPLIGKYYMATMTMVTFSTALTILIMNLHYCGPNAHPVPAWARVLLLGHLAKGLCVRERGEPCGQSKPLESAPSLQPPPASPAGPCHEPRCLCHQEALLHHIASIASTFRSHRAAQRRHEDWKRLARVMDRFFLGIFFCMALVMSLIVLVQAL

For the molecule `CC[C@H](C)[C@@H]1NC(=O)[C@H](CCCNC(=N)N)NC(=O)[C@H](CCCNC(=N)N)NC(=O)[C@@H](NC(=O)[C@H](Cc2ccc(O)cc2)NC(=O)[C@H](CCCNC(=N)N)NC(=O)[C@H](CCCNC(=N)N)NC(=O)[C@H](CCCNC(=N)N)NC(=O)[C@H](CCCNC(=N)N)NC(=O)[C@H](CC(=O)O)NC(=O)[C@H](Cc2ccc(O)cc2)NC(=O)[C@@H]2CCCN2C(=O)[C@H](C)NC(=O)[C@H](CCCNC(=N)N)NC(=O)[C@@H]2CSSC[C@H](NC(=O)[C@@H](N)[C@@H](C)O)C(=O)N[C@@H](CCCNC(=N)N)C(=O)N[C@@H](CO)C(=O)N[C@@H](CO)C(=O)NCC(=O)N[C@@H](CCCNC(=N)N)C(=O)N[C@@H](Cc3ccc(O)cc3)C(=O)N2)CSSC[C@@H](C(=O)N[C@H](C(=O)O)C(C)C)NC(=O)[C@H](C)NC(=O)[C@H](CC(=O)O)NC(=O)[C@H]([C@@H](C)O)NC1=O` (HELM PEPTIDE1{T.C.R.S.S.G.R.Y.C.R.A.P.Y.D.R.R.R.R.Y.C.R.R.I.T.D.A.C.V}$PEPTIDE1,PEPTIDE1,2:R3-9:R3|PEPTIDE1,PEPTIDE1,20:R3-27:R3$$$V2.0), the IC50 in experiment [1] is 26 nM; in experiment [2], 2060 nM.

Consider `CC[C@H](C)[C@@H]1NC(=O)[C@H](CCCNC(=N)N)NC(=O)[C@H](CCCNC(=N)N)NC(=O)[C@@H](NC(=O)[C@H](Cc2ccc(O)cc2)NC(=O)[C@H](CCCNC(=N)N)NC(=O)[C@H](CCCNC(=N)N)NC(=O)[C@H](CCCNC(=N)N)NC(=O)[C@H](CCCNC(=N)N)NC(=O)[C@H](CC(=O)O)NC(=O)[C@H](Cc2ccc(O)cc2)NC(=O)[C@H](C)NC(=O)[C@H](CO)NC(=O)[C@H](CCCNC(=N)N)NC(=O)[C@@H]2CSSC[C@H](NC(=O)[C@@H](N)[C@@H](C)O)C(=O)N[C@H](CCCNC(=N)N)C(=O)N[C@@H](CO)C(=O)N[C@@H](CO)C(=O)NCC(=O)N[C@@H](CCCNC(=N)N)C(=O)N[C@@H](Cc3ccc(O)cc3)C(=O)N2)CSSC[C@@H](C(=O)N[C@H](C(=O)O)C(C)C)NC(=O)[C@H](C)NC(=O)[C@H](CC(=O)O)NC(=O)[C@H]([C@@H](C)O)NC1=O`, for which the IC50 came to 16 nM in experiment [1] and 2250 nM in experiment [2].

Consider `CC[C@H](C)[C@@H]1NC(=O)[C@H](CCCNC(=N)N)NC(=O)[C@H](CCCNC(=N)N)NC(=O)[C@@H](NC(=O)[C@H](Cc2ccc(O)cc2)NC(=O)[C@H](CCCNC(=N)N)NC(=O)[C@H](CCCNC(=N)N)NC(=O)[C@H](CCCNC(=N)N)NC(=O)[C@H](CCCNC(=N)N)NC(=O)[C@H](CC(=O)O)NC(=O)[C@H](Cc2ccc(O)cc2)NC(=O)[C@@H]2CCCN2C(=O)[C@H](CO)NC(=O)[C@H](CCCNC(=N)N)NC(=O)[C@@H]2CSSC[C@H](NC(=O)[C@@H](N)[C@@H](C)O)C(=O)N[C@@H](CCCNC(=N)N)C(=O)N[C@@H](C)C(=O)N[C@@H](CO)C(=O)NCC(=O)N[C@@H](CCCNC(=N)N)C(=O)N[C@@H](Cc3ccc(O)cc3)C(=O)N2)CSSC[C@@H](C(=O)N[C@H](C(=O)O)C(C)C)NC(=O)[C@H](C)NC(=O)[C@H](CC(=O)O)NC(=O)[C@H]([C@@H](C)O)NC1=O`, for which the values for the IC50 in experiment [1] and in experiment [2] were 14 nM and 1420 nM, respectively.

As to `CC[C@H](C)[C@@H]1NC(=O)[C@H](CCCNC(=N)N)NC(=O)[C@H](CCCNC(=N)N)NC(=O)[C@@H]2CSSC[C@H](NC(=O)[C@H](Cc3ccc(O)cc3)NC(=O)[C@H](CCCNC(=N)N)NC(=O)CNC(=O)[C@H](CO)NC(=O)[C@H](C)NC(=O)[C@H](CCCNC(=N)N)NC(=O)[C@@H](NC(=O)[C@@H](N)[C@@H](C)O)CSSC[C@@H](C(=O)N[C@H](C(=O)O)C(C)C)NC(=O)[C@H](C)NC(=O)[C@H](CC(=O)O)NC(=O)[C@H]([C@@H](C)O)NC1=O)C(=O)N[C@@H](CCCNC(=N)N)C(=O)N[C@@H](CO)C(=O)N1CCC[C@H]1C(=O)N[C@@H](Cc1ccc(O)cc1)C(=O)N[C@@H](CC(=O)O)C(=O)N[C@@H](CCCNC(=N)N)C(=O)N[C@@H](CCCNC(=N)N)C(=O)N[C@@H](CCCNC(=N)N)C(=O)N[C@@H](CCCNC(=N)N)C(=O)N[C@@H](Cc1ccc(O)cc1)C(=O)N2`, the IC50 in experiment [1] worked out at 17 nM; in experiment [2] it was 4100 nM.

In the case of `CC[C@H](C)[C@@H]1NC(=O)[C@H](CCCNC(=N)N)NC(=O)[C@H](CCCNC(=N)N)NC(=O)[C@@H]2CSSC[C@H](NC(=O)[C@H](C)NC(=O)[C@H](CCCNC(=N)N)NC(=O)CNC(=O)[C@H](CO)NC(=O)[C@H](CO)NC(=O)[C@H](CCCNC(=N)N)NC(=O)[C@@H](NC(=O)[C@@H](N)[C@@H](C)O)CSSC[C@@H](C(=O)N[C@H](C(=O)O)C(C)C)NC(=O)[C@H](C)NC(=O)[C@H](CC(=O)O)NC(=O)[C@H]([C@@H](C)O)NC1=O)C(=O)N[C@@H](CCCNC(=N)N)C(=O)N[C@@H](CO)C(=O)N1CCC[C@H]1C(=O)N[C@@H](Cc1ccc(O)cc1)C(=O)N[C@@H](CC(=O)O)C(=O)N[C@@H](CCCNC(=N)N)C(=O)N[C@@H](CCCNC(=N)N)C(=O)N[C@@H](CCCNC(=N)N)C(=O)N[C@@H](CCCNC(=N)N)C(=O)N[C@@H](Cc1ccc(O)cc1)C(=O)N2` (HELM PEPTIDE1{T.C.R.S.S.G.R.A.C.R.S.P.Y.D.R.R.R.R.Y.C.R.R.I.T.D.A.C.V}$PEPTIDE1,PEPTIDE1,2:R3-27:R3|PEPTIDE1,PEPTIDE1,9:R3-20:R3$$$V2.0), the IC50 amounted to 120 nM in experiment [1] and 7330 nM in experiment [2].

For `CC[C@H](C)[C@@H]1NC(=O)[C@H](CCCNC(=N)N)NC(=O)[C@H](CCCNC(=N)N)NC(=O)[C@@H](NC(=O)[C@H](Cc2ccc(O)cc2)NC(=O)[C@H](C)NC(=O)[C@H](CCCNC(=N)N)NC(=O)[C@H](CCCNC(=N)N)NC(=O)[C@H](CCCNC(=N)N)NC(=O)[C@H](CC(=O)O)NC(=O)[C@H](Cc2ccc(O)cc2)NC(=O)[C@@H]2CCCN2C(=O)[C@H](CO)NC(=O)[C@H](CCCNC(=N)N)NC(=O)[C@@H]2CSSC[C@H](NC(=O)[C@@H](N)[C@@H](C)O)C(=O)N[C@@H](CCCNC(=N)N)C(=O)N[C@@H](CO)C(=O)N[C@@H](CO)C(=O)NCC(=O)N[C@@H](CCCNC(=N)N)C(=O)N[C@@H](Cc3ccc(O)cc3)C(=O)N2)CSSC[C@@H](C(=O)N[C@H](C(=O)O)C(C)C)NC(=O)[C@H](C)NC(=O)[C@H](CC(=O)O)NC(=O)[C@H]([C@@H](C)O)NC1=O`, the figures for the IC50 in experiment [1] and in experiment [2] were 54 nM and 4520 nM, respectively.

Regarding `CC(C)[C@H](NC(=O)[C@@H]1CSSC[C@H](NC(=O)[C@H](Cc2ccc(O)cc2)NC(=O)[C@H](CCCNC(=N)N)NC(=O)[C@H](CCCNC(=N)N)NC(=O)[C@H](CCCNC(=N)N)NC(=O)[C@H](CCCNC(=N)N)NC(=O)[C@H](CC(=O)O)NC(=O)[C@H](Cc2ccc(O)cc2)NC(=O)[C@@H]2CCCN2C(=O)[C@H](CO)NC(=O)[C@H](CCCNC(=N)N)NC(=O)[C@@H]2CSSC[C@H](NC(=O)[C@@H](N)[C@@H](C)O)C(=O)N[C@@H](CCCNC(=N)N)C(=O)N[C@@H](CO)C(=O)N[C@@H](CO)C(=O)NCC(=O)N[C@@H](CCCNC(=N)N)C(=O)N[C@@H](Cc3ccc(O)cc3)C(=O)N2)C(=O)N[C@@H](CCCNC(=N)N)C(=O)N[C@@H](CCCNC(=N)N)C(=O)N[C@@H](C)C(=O)N[C@@H]([C@@H](C)O)C(=O)N[C@@H](CC(=O)O)C(=O)N[C@@H](C)C(=O)N1)C(=O)O`, the IC50 amounted to 16 nM in experiment [1] and 640 nM in experiment [2].

As for `CC[C@H](C)[C@@H]1NC(=O)[C@H](CCCNC(=N)N)NC(=O)[C@H](CCCNC(=N)N)NC(=O)[C@@H]2CSSC[C@H](NC(=O)[C@H](Cc3ccc(O)cc3)NC(=O)[C@H](CCCNC(=N)N)NC(=O)CNC(=O)[C@H](CO)NC(=O)[C@H](CO)NC(=O)[C@H](CCCNC(=N)N)NC(=O)[C@@H](NC(=O)[C@@H](N)[C@@H](C)O)CSSC[C@@H](C(=O)N[C@H](C(=O)O)C(C)C)NC(=O)[C@H](C)NC(=O)[C@H](CC(=O)O)NC(=O)[C@H]([C@@H](C)O)NC1=O)C(=O)N[C@@H](CCCNC(=N)N)C(=O)N[C@@H](CO)C(=O)N[C@@H](C)C(=O)N[C@@H](Cc1ccc(O)cc1)C(=O)N[C@@H](CC(=O)O)C(=O)N[C@@H](CCCNC(=N)N)C(=O)N[C@@H](CCCNC(=N)N)C(=O)N[C@@H](CCCNC(=N)N)C(=O)N[C@@H](CCCNC(=N)N)C(=O)N[C@@H](Cc1ccc(O)cc1)C(=O)N2` (HELM PEPTIDE1{T.C.R.S.S.G.R.Y.C.R.S.A.Y.D.R.R.R.R.Y.C.R.R.I.T.D.A.C.V}$PEPTIDE1,PEPTIDE1,2:R3-27:R3|PEPTIDE1,PEPTIDE1,9:R3-20:R3$$$V2.0), the IC50 in experiment [1] amounted to 10 nM; in experiment [2] it was 1780 nM.

As to `CC[C@H](C)[C@@H]1NC(=O)[C@H](CCCNC(=N)N)NC(=O)[C@H](CCCNC(=N)N)NC(=O)[C@@H]2CSSC[C@H](NC(=O)[C@H](Cc3ccc(O)cc3)NC(=O)[C@H](CCCNC(=N)N)NC(=O)CNC(=O)[C@H](CO)NC(=O)[C@H](CO)NC(=O)[C@H](CCCNC(=N)N)NC(=O)[C@@H](NC(=O)[C@@H](N)[C@@H](C)O)CSSC[C@@H](C(=O)N[C@@H](C)C(=O)O)NC(=O)[C@H](C)NC(=O)[C@H](CC(=O)O)NC(=O)[C@H]([C@@H](C)O)NC1=O)C(=O)N[C@@H](CCCNC(=N)N)C(=O)N[C@@H](CO)C(=O)N1CCC[C@H]1C(=O)N[C@@H](Cc1ccc(O)cc1)C(=O)N[C@@H](CC(=O)O)C(=O)N[C@@H](CCCNC(=N)N)C(=O)N[C@@H](CCCNC(=N)N)C(=O)N[C@@H](CCCNC(=N)N)C(=O)N[C@@H](CCCNC(=N)N)C(=O)N[C@@H](Cc1ccc(O)cc1)C(=O)N2`, the IC50 in experiment [1] stood at 62 nM; in experiment [2], 1600 nM.

Consider `CC[C@H](C)[C@@H]1NC(=O)[C@H](CCCNC(=N)N)NC(=O)[C@H](CCCNC(=N)N)NC(=O)[C@@H]2CSSC[C@H](NC(=O)[C@H](Cc3ccc(O)cc3)NC(=O)[C@H](CCCNC(=N)N)NC(=O)CNC(=O)[C@H](CO)NC(=O)[C@H](CO)NC(=O)[C@H](CCCNC(=N)N)NC(=O)[C@@H](NC(=O)[C@H](C)N)CSSC[C@@H](C(=O)N[C@H](C(=O)O)C(C)C)NC(=O)[C@H](C)NC(=O)[C@H](CC(=O)O)NC(=O)[C@H]([C@@H](C)O)NC1=O)C(=O)N[C@@H](CCCNC(=N)N)C(=O)N[C@@H](CO)C(=O)N1CCC[C@H]1C(=O)N[C@@H](Cc1ccc(O)cc1)C(=O)N[C@@H](CC(=O)O)C(=O)N[C@@H](CCCNC(=N)N)C(=O)N[C@@H](CCCNC(=N)N)C(=O)N[C@@H](CCCNC(=N)N)C(=O)N[C@@H](CCCNC(=N)N)C(=O)N[C@@H](Cc1ccc(O)cc1)C(=O)N2`, for which the values for the IC50 in experiment [1] and in experiment [2] were 14 nM and 2450 nM, respectively.

The IC50 is the concentration that inhibits the measured activity by half.
